Results as given in patent US9469615B2, “Quinoxalines and AZA-quinoxalines as CRTH2 receptor modulators” (Merck Sharp & Dohme Corp., priority 2010, dated 2016).

Target: T1, hCRTH2 (Homo sapiens, UniProt Q9Y5Y4)
T1 construct: expressed in transfected cells; host or cells: HEK (human embryonic kidney) cells expressing hCRTH2; membrane preparation
T1 sequence (Q9Y5Y4 1-395): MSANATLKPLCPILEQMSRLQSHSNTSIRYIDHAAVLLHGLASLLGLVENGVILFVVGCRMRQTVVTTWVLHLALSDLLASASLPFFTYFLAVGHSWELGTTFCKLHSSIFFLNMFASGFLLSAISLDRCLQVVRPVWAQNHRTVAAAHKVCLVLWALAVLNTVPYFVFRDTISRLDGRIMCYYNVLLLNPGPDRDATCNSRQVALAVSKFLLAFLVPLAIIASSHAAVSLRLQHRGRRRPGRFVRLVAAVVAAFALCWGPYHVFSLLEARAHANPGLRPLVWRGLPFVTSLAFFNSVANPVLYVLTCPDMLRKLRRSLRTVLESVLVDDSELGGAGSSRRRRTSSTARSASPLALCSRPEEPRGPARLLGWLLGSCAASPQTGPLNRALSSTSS
Assay: Radioligand binding assay ([3H]PGD2 competition, HEK-hCRTH2 membranes)
Details: [3H]PGD2 competition, Table B
Procedure, shortened: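 Using membranes of an HEK line stably carrying hCRTH2, ligands were tested against [3H]PGD2 (3.0 nM) in pH 7.4 Tris buffer containing 2 mM MnCl2 and 1 mM EDTA. After one hour at room temperature, filters were washed cold and counted.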

SMILES	Ki
O=C(O)CCCCc1nc2cc(C(=O)N3CCC4(CCCc5ccccc54)C3)ccc2nc1-c1ccc(Cl)cc1 (stereo not shown) [compound 565, 5-(3-(4-chlorophenyl)-7-(3,4-dihydro-2H-spiro [naphthalene-1,3′-pyrrolidin]-1′-ylcarbonyl)quinoxalin-2-yl)pentanoic acid]	0.1 to 2 nM
O=C(O)CCCCc1nc2cc(C(=O)NC3C(=O)Nc4ccccc43)ccc2nc1-c1ccc(Cl)cc1 (stereo not shown) [compound 566, 5-(3-(4-chlorophenyl)-7-((2-oxoindolin-3-yl)carbamoyl)quinoxalin-2-yl)pentanoic acid]	2.1 to 20 nM
O=C(O)CCCCc1nc2cc(C(=O)N3CCC4(CC3)NC(=O)Cc3ccccc34)ccc2nc1-c1ccc(Cl)cc1 [compound 567]	0.1 to 2 nM
O=C(O)CCCCc1nc2cc(C(=O)N3CCC4(CC3)Cc3ccccc3C(=O)N4)ccc2nc1-c1ccc(Cl)cc1 [compound 568, 5-(3-(4-chlorophenyl)-7-(1-oxo-2,4-dihydro-1H-spiro[isoquinoline-3,4′-piperidin]-1′-ylcarbonyl)quinoxalin-2-yl)pentanoic acid]	2.1 to 20 nM
O=C(O)CCCCc1nc2cc(C(=O)N[C@@H]3CCSc4ccccc43)ccc2nc1-c1ccc(Cl)cc1 [compound 569, (R)-5-(3-(4-chlorophenyl)-7-(thiochroman-4-ylcarbamoyl)quinoxalin-2-yl)pentanoic acid]	0.1 to 2 nM
O=C(O)CCCCc1nc2cc(C(=O)N[C@@H]3CCCCc4ccccc43)ccc2nc1-c1ccc(Cl)cc1 [compound 570, (R)-5-(3-(4-chlorophenyl)-7-((6,7,8,9-tetrahydro-5H-benzo[7]annulen-5-yl)carbamoyl)quinoxalin-2-yl)pentanoic acid]	2.1 to 20 nM
C[C@H](NC(=O)c1ccc2nc(-c3ccc(F)cc3)c(CCCCC(=O)O)nc2c1)c1ccc(F)c2ccccc12 [compound 571, (S)-5-(7-((1-(4-fluoronaphthalen-1-yl)ethyl)carbamoyl)-3-(4-fluorophenyl)quinoxalin-2-yl)pentanoic acid]	2.1 to 20 nM
C[C@@H](NC(=O)c1ccc2nc(-c3ccc(F)cc3)c(CCCCC(=O)O)nc2c1)c1ccc(F)c2ccccc12 [compound 572, (R)-5-(7-((1-(4-fluoronaphthalen-1-yl)ethyl)carbamoyl)-3-(4-fluorophenyl)quinoxalin-2-yl)pentanoic acid]	20.1 to 200 nM
O=C(O)CCCCc1nc2cc(C(=O)N[C@@H]3COc4ccccc43)ccc2nc1-c1ccccc1 [compound 573, (S)-5-(7-((2,3-dihydrobenzofuran-3-yl)carbamoyl)-3-phenylquinoxalin-2-yl)pentanoic acid]	2.1 to 20 nM
O=C(O)CCCCc1nc2cc(C(=O)N[C@H]3COc4ccccc43)ccc2nc1-c1ccccc1 [compound 574, (R)-5-(7-((2,3-dihydrobenzofuran-3-yl)carbamoyl)-3-phenylquinoxalin-2-yl)pentanoic acid]	2.1 to 20 nM
CS(=O)(=O)N1CCC(NC(=O)c2ccc3nc(-c4ccccc4)c(CCCCC(=O)O)nc3c2)c2ccccc21 (stereo not shown) [compound 575, 5-(7-((1-(methylsulfonyl)-1,2,3,4-tetrahydroquinolin-4-yl)carbamoyl)-3-phenylquinoxalin-2-yl)pentanoic acid]	0.1 to 2 nM
O=C(O)CCCCc1nc2cc(C(=O)NC3CC(=O)Nc4ccccc43)ccc2nc1-c1ccccc1 (stereo not shown) [compound 576, 5-(7-((2-oxo-1,2,3,4-tetrahydroquinolin-4-yl)carbamoyl)-3-phenylquinoxalin-2-yl)pentanoic acid]	2.1 to 20 nM
O=C(O)CCCCc1nc2cc(C(=O)N3CC[C@H](c4ccc(F)cc4)C3)ccc2nc1-c1ccc(Cl)cc1 [compound 577, (R)-5-(3-(4-chlorophenyl)-7-(3-(4-fluorophenyl)pyrrolidine-1-carbonyl)quinoxalin-2-yl)pentanoic acid]	0.1 to 2 nM
O=C(O)CCCCc1nc2cc(C(=O)NC3CCCOc4ccccc43)ccc2nc1-c1ccc(Cl)cc1 (stereo not shown) [compound 579, 5-(3-(4-chlorophenyl)-7-((2,3,4,5-tetralaydrobenzo[b]oxepin-5-yl)carbamoyl)quinoxalin-2-yl)pentanoic acid]	2.1 to 20 nM
O=C(O)CCCCc1nc2cc(C(=O)N[C@H]3COc4ccccc43)ccc2nc1-c1ccc(Cl)cc1 [compound 580, (R)-5-(3-(4-chlorophenyl)-7-((2,3-dihydrobenzofuran-3-yl)carbamoyl)quinoxalin-2-yl)pentanoic acid]	0.1 to 2 nM
CC1(C)CC(NC(=O)c2ccc3nc(-c4ccc(Cl)cc4)c(CCCCC(=O)O)nc3c2)c2ccccc2O1 (stereo not shown) [compound 582, 5-(3-(4-chlorophenyl)-7-((2,2-dimethylchroman-4-yl)carbamoyl)quinoxalin-2-yl)pentanoic acid]	0.1 to 2 nM
O=C(O)CCCCc1nc2cc(C(=O)N3CCC4(CCCc5ccccc54)C3)ccc2nc1-c1ccc(Cl)cc1 (stereo not shown) [compound 583, 5-(3-(4-chlorophenyl)-7-(3,4-dihydro-2H-spiro [naphthalene-1,3′-pyrrolidin]-1′-ylcarbonyl)quinoxalin-2-yl)pentanoic acid]	0.1 to 2 nM
O=C(O)CCCCc1nc2cc(C(=O)NC3C(=O)Nc4ccccc43)ccc2nc1-c1ccc(Cl)cc1 (stereo not shown) [compound 584, 5-(3-(4-chlorophenyl)-7-((2-oxoindolin-3-yl)carbamoyl)quinoxalin-2-yl)pentanoic acid]	2.1 to 20 nM
COc1ccc2c(c1)CCC[C@H]2NC(=O)c1ccc2nc(-c3ccc(F)cc3)c(CCCC(F)(F)C(=O)O)nc2c1 [compound 589, (R)-2,2-difluoro-5-(3-(4-fluorophenyl)-7-((6-methoxy-1,2,3,4-tetrahydro-naphthalen-1-yl)carbamoyl)quinoxalin-2-yl)pentanoic acid]	20.1 to 200 nM
O=C(O)CCCCc1nc2cc(C(=O)N3CCN(C(=O)OCc4ccccc4)CC3)ccc2nc1-c1ccc(Cl)cc1 [compound 590, 5-(7-(4-((benzyloxy)carbonyl)piperazine-1-carbonyl)-3-(4-chlorophenyl)quinoxalin-2-yl)pentanoic acid]	2.1 to 20 nM
O=C(O)CCCCc1nc2cc(C(=O)N3CCCN(Cc4ccccc4)CC3)ccc2nc1-c1ccc(Cl)cc1 [compound 591, 5-(7-(4-benzyl-1,4-diazepane-1-carbonyl)-3-(4-chlorophenyl)quinoxalin-2-yl)pentanoic acid]	2.1 to 20 nM
O=C(O)CCCCc1nc2cc(C(=O)N3CCN(C(=O)c4ccco4)CC3)ccc2nc1-c1ccc(Cl)cc1 [compound 592, 5-(3-(4-chlorophenyl)-7-(4-(furan-2-carbonyl)piperazine-1-carbonyl)quinoxalin-2-yl)pentanoic acid]	2.1 to 20 nM
CN(Cc1ccccc1)C(=O)c1ccc2nc(-c3ccc(Cl)cc3)c(CCCCC(=O)O)nc2c1 [compound 593, 5-(7-(benzyl(methyl)carbamoyl)-3-(4-chlorophenyl)quinoxalin-2-yl)pentanoic acid]	0.1 to 2 nM
O=C(O)CCCCc1nc2cc(C(=O)N3CCN(c4ccncc4)CC3)ccc2nc1-c1ccc(Cl)cc1 [compound 594, 5-(3-(4-chlorophenyl)-7-(4-(pyridin-4-yl)piperazine-l-carbonyl)quinoxalin-2-yl)pentanoic acid]	201 to 700 nM
N#Cc1cccnc1N1CCN(C(=O)c2ccc3nc(-c4ccc(Cl)cc4)c(CCCCC(=O)O)nc3c2)CC1 [compound 595, 5-(3-(4-chlorophenyl)-7-(4-(3-cyanopyridin-2-yl)piperazine-1-carbonyl)quinoxalin-2-yl)pentanoic acid]	0.1 to 2 nM
